Our source for the Ki values is patent publication US20060058350A1, “Alkynyl-substituted azasugar derivative and drug containing the same as the active ingredient” (Carna Biosciences, Inc., priority 2002, published 2006).

Molecules are shown by their SMILES. A value given as a limit tells only on which side of the number the result lay.

Holding throughout (assay type): biochemical
For one assay, the target named is T1, MMP-3 (Homo sapiens, UniProt P08254).
T1 construct: a DNA fragment containing a pro-region and a catalyst region in MMP-3 was also prepared; histidine tag (N); made in house; host or cells: E. coli
T1 sequence (P08254 100-272 limits assumed): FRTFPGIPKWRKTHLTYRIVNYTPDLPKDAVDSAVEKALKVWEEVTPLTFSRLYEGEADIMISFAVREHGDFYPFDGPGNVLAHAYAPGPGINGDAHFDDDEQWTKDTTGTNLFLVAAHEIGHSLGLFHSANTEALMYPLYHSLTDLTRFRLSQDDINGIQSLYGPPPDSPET
Kind of assay: Measurement of matrix metalloprotease (MMP) inhibitory activity, MMP-3, fluorescence quenching peptide substrate. The conditions noted are these: recombinant MMP-3 activated with para-aminophenyl mercury acetate; 37° C., 2 hours; Ki calculated from IC50 and Km; read-out: Ki MMP3. As to the method:
(§1) A DNA fragment coding for catalytic regions in MMP-1 and MMP-9 was amplified by a PCR method with cDNA prepared from HT-1080 cells derived from human fibrosarcoma. In the same manner, a DNA fragment containing a pro-region and a catalyst region in MMP-3 was also prepared. The amplified DNA fragment was cloned into a commercially available expression vector which was designed to allow a histidine tag to add to the N-terminal, and then transformed into E. coli. The resulting transformants were cultured and a recombinant MMP was purified from a cell lysate using Ni-NTA regin (QIAGEN INC.). Recombinant MMP-3 was further activated by reacting with 1 mM para-aminophenyl mercury acetate at 37° C. for one hour.
(§2) The inhibitory activity was measured according to the method by Night et al. [FEBS Lett. 296, p 263 (1992)] or the method by Nagase et al. [J. Biol. Chem. 269, p 20952 (1994)] using a 96-half well black microplate. A solution prepared by dissolving each of test compounds (a) to (f) in dimethyl sulfoxide was diluted with a reaction buffer [50 mM Tris-HCl (pH 7.5) buffer containing 150 mM NaCl, 10 mM CaCl2, 0.05% Brij-35®] and then 25 μL of the dilute solution was added in a well.
(§3) After 25 μL of a MMP solution diluted with the reaction buffer was added thereto, the mixture was incubated at 37° C. for 10 minutes. Then, the reaction was initiated by adding 50 μL of a 10 μM fluorescence quenching peptide substrate prepared from the reaction buffer. As the fluorescence quenching peptide substrate, MCA-Pro-Leu-Gly-Leu-DPA-Ala-Arg-NH2 (MCA=7-methoxycoumarin-4-acetyl and DPA=N-3-(2,4-dinitrophenyl)-L-2,3-diaminopropionyl) were used for MMP-1 and MMP-9, and MCA-Arg-Pro-Lys-Pro-Val-Nva-Trp-Arg-Lys (DNP)-NH2 (DNP=2,4-dinitrophenyl) was used for MMP-3. A fluorescence intensity (excitation 320/fluoresecence 405 nm) immediately after the initiation of the reaction and a fluorescence intensity after the reaction at 37° C. (for 2 hours for MMP-1 and MMP-3, for 3 hours for MMP-9) were measured and a difference in fluorescence intensity was taken as an indicator of enzymatic activity. The inhibition rate (%) at each concentration of an inhibitor was calculated and an IC50 value was determined from the dose-response curve. From this IC50 value and previously determined Km value for a […] substrate, a Ki value was calculated using GraphPad Prism software (GraphPad Software, Inc.).

Another assay concerns the target T2, MMP-9 (Homo sapiens, UniProt P14780).
T2 construct: A DNA fragment coding for catalytic regions in MMP-1 and MMP-9; histidine tag (N); made in house; host or cells: E. coli
Kind of assay: Measurement of matrix metalloprotease (MMP) inhibitory activity, MMP-9, fluorescence quenching peptide substrate. Conditions: read-out: Ki MMP9. The method, then: as §1, §2, §3

Assay [1] addresses T3, TNF-α converting enzyme (TACE) (Homo sapiens, UniProt P78536).
T3 construct: a DNA fragment cording a signal region, a pro-region and a catalytic region was amplified by a PCR method; FLAG octapeptide (C); made in house; host or cells: insect cells (baculovirus, pFastBac)
Nature of the assay: Measurement of inhibitory activity against TNF-α converting enzyme (TACE), fluorescence quenching peptide substrate. The method, then: A full length cDNA for TACE was cloned from THP-1 cells derived from human acute monocytic leukemia and a DNA fragment cording a signal region, a pro-region and a catalytic region was amplified by a PCR method. An appropriate restriction enzyme recognizing sequence was added to both terminals of the amplified fragment and also a sequence of an antigenic octapeptide (FLAG™) tag was inserted in the 3′ terminal. A recombinant bacmid was prepared from the resulting amplified fragment using a pFastBac system (Life Technologies) and then transfected into insect cells to generate a recombinant baculovirus. Insect cells were infected with the recombinant baculovirus and the recombinant TACE released into culture supernatant was purified by an affinity gel column.
The inhibitory activity was measured according to the method by Van Dyke et al. [Bioorg. […] A solution prepared by dissolving each of test compounds (a) to (f) in dimethylsulfoxide was diluted with a reaction buffer [20 mM tris-HCl buffer (pH 7.5) containing 0.05% Brij-35®] and then 40 μL of the dilute solution was added in a well. […] The inhibition rate (%) at each concentration of an inhibitor was calculated and an IC50 value was determined from the dose-response curve. From this IC50 value and previously determined Km value for a TACE substrate, a Ki value was calculated using data processing software (GraphPad Prism™, GraphPad Software, Inc.).

The target of the next assay is T4, MMP-1 (Homo sapiens, UniProt P03956).
T4 construct: A DNA fragment coding for catalytic regions in MMP-1 and MMP-9; histidine tag (N); made in house; host or cells: E. coli
T4 sequence (P03956 98-276 limits assumed): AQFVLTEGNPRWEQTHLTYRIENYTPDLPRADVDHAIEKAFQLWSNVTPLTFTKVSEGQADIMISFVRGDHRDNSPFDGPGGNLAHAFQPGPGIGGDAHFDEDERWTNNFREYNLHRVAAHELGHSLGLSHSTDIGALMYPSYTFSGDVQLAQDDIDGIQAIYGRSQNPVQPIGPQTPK
Nature of the assay: Measurement of matrix metalloprotease (MMP) inhibitory activity, MMP-1, fluorescence quenching peptide substrate. Conditions: recombinant catalytic region of MMP-1; 37° C., 2 hours; Ki calculated from IC50 and Km; read-out: Ki MMP1. The method, then: as §1, §2, §3

T3 sequence (P78536 223-474 limits assumed): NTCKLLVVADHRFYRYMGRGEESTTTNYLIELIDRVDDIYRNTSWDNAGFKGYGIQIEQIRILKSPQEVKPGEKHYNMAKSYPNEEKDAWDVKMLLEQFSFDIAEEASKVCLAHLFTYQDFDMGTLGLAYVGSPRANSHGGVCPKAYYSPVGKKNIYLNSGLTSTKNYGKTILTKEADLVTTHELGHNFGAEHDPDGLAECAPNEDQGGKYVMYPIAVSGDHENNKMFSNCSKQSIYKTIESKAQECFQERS
T2 sequence (P14780 107-444 limits assumed): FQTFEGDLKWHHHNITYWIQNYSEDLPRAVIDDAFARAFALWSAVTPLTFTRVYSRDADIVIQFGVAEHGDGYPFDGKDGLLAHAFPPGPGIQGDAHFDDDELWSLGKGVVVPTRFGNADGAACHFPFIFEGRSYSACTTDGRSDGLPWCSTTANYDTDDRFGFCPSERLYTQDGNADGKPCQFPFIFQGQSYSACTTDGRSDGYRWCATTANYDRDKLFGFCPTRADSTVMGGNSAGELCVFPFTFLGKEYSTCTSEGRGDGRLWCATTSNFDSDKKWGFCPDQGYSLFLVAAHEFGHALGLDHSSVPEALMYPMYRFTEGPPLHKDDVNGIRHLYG

With `CC#CCOc1ccc(S(=O)(=O)N2C[C@H](O)[C@H](O)[C@@H](OC)[C@@H]2C(=O)NO)cc1` [Compound (a), (2R,3S,4S,5S)-1-(4′-but-2′-ynyloxybenzenesulfonyl)-4,5-dihydroxy-3-methoxypiperidine-2-carboxylic acid hydroxamide], the Ki at MMP-3 was > 650 nM; at MMP-9, > 790 nM; in assay [1] it was 4.3 nM; at MMP-1 it was > 850 nM.

As to `CC#CCOc1ccc(S(=O)(=O)N2C[C@H](O)[C@H](O)[C@@H](OCC)[C@@H]2C(=O)NO)cc1` [Compound (e), (2R,3S,4S,5S)-1-(4′-but-2′-ynyloxybenzenesulfonyl)-4,5-dihydroxy-3-ethoxypiperidine-2-carboxylic acid hydroxamide], the Ki on MMP-3 was > 650 nM; on MMP-9, > 790 nM; in assay [1], 8.5 nM; at MMP-1, > 850 nM.

In the case of `CC#CCOc1ccc(S(=O)(=O)N2C[C@H](O)[C@H](O)[C@@H](O)[C@@H]2C(=O)NO)cc1` [Compound (d), (2R,3S,4S,5S)-1-(4′-but-2′-ynyloxybenzenesulfonyl)-3,4,5-trihydroxy-piperidine-2-carboxylic acid hydroxamide], the figures for the inhibition constant Ki on MMP-3, on MMP-9 and on MMP-1 were 490 nM, > 790 nM and > 850 nM, respectively.

Regarding `CO[C@@H]1[C@@H](O)[C@@H](O)CN(S(=O)(=O)c2ccc(OCC#CCO)cc2)[C@H]1C(=O)NO` [Compound (f), (2R,3S,4S,5S)-4,5-dihydroxy-1-[4′-(4″-hydroxy-but-2′-ynyloxy)benzenesulfonyl]-3-methoxy-piperidine-2-carboxylic acid hydroxamide], the inhibitory constant (Ki) at MMP-3 is > 650 nM; at MMP-9, > 790 nM; in assay [1], 18 nM; on MMP-1 it was > 850 nM.

As for `CC#CCOc1ccc(S(=O)(=O)N2C[C@H](OC)[C@H](O)[C@@H](O)[C@@H]2C(=O)NO)cc1` [Compound (c), (2R,3S,4R,5S)-1-(4′-but-2′-ynyloxybenzenesulfonyl)-3,4-dihydroxy-5-methoxypiperidine-2-carboxylic acid hydroxamide], the Ki on MMP-3 is > 650 nM; on MMP-9, > 790 nM; in assay [1], 2.4 nM; at MMP-1 it was > 850 nM.

As for `CC#CCOc1ccc(S(=O)(=O)N2C[C@H](O)[C@H](O)[C@@H](OCc3ccccc3)[C@@H]2C(=O)NO)cc1` [Compound (b), (2R,3S,4S,5S)-3-benzyloxy-1-(4′-but-2′-ynyloxybenzenesulfonyl)-4,5-dihydroxypiperidine-2-carboxylic acid hydroxamide], the inhibition constant (Ki) at MMP-3 is > 650 nM; on MMP-9, > 790 nM; in assay [1] it was 9.4 nM; on MMP-1, > 850 nM.
